What was measured:
[1] = test system: recombinant lipase (Bacillus sphaericus 205y lipase expressed in E. coli); experiment: Effect of organic solvents on crude recombinant lipase activity (organic solvent-tolerant test); assay type: biochemical; settings: for Relative activity (%) at concentration of 25%: 25% (v/v) solvent (1 ml solvent/3 ml crude enzyme), 30 min, 37° C., shaking, relative to non-solvent control
Description: The mixture is allowed to stand still for 20-30 seconds until the aqueous phase was sedimented clearly from the solution of isooctane and fatty acids. The reaction mixture contains 0.01 M calcium chloride (20 μl), olive oil emulsion (2.5 ml) and crude enzyme (1 ml). The reaction mixture was continuously agitated by using a horizontal shaker at 200 rpm at 37° C. The reaction was stopped by adding isooctane (5 ml) to dissolve free fatty acids produced by olive oil hydrolysis. Lipase activity was determined by measuring the free fatty acids from the standard curve of free fatty acids. One unit of lipase activity was defined as 1.0 μmol of fatty acid liberated per min per ml.
After induction with IPTG (1 mM), 10 ml of cells were pelleted by centrifugation at 10,000 gram and resuspended in 10 ml of Phosphate buffer (PBS). The cells were mixed thoroughly, placed on ice, and sonicated with Branson sonicater (2 min, 30% duty cycle). The broken cells were pelleted and the supernantant were used in determining the lipase activity and organic solvent tolerant. Various organic solvents were tested at the concentration of 25% (v/v) by addition of 1 ml of organic solvent to 3 ml of crude enzyme. The reaction mixture was incubated for 30 minutes at 37° C. under shaking condition (200 rpm). Remaining activity was assayed under standard condition and expressed as the percent of the control value. For control, distilled water was added instead of solvent. The organic solvents used were hexane, ρ-xylene, benzene, dimethy sulfoxide, acetonitrile and hexadecane. Each experiment was done in triplicate.
Table 4: Effect of different organic solvents on crude recombinant lipase activity. Three milliliters of cell-free supernatant of the culture was incubated with 1 ml of organic solvents at 37° C. with shaking. The remaining lipase activity relative to the non-solvent containing control was measured.

[2] = test system: isolate 205y; experiment: Growth of isolate 205y in different organic solvents and concentrations; assay type: cell-based, Bacillus sphaericus 205y; parameters: Growth of isolate 205y: key to the marks not given beside the values; settings: for Growth of isolate 205y: growth visually determined
Description: The Bacillus sphaericus 205y culture could be obtained from Enzyme and Microbial Technology Research Department of Biochemistry and Microbiology, Faculty of Science and Environmental Studies, University Putra Malaysia. One gram of soil is resuspended in 10 ml basal mineral […] supplemented with selected hydrocarbon (0.1% v/v). The basal media contained (w/v) K2HPO4 0.5%, NH4Cl (1.0%), Na2SO4 (2%), KNO3 (2%), MgSO4.7H2O (0.2%).
Selected hydrocarbons would either be benzene, toluene or mixture of both as their sole carbon and energy source. Pure isolates were prescreened in media spiked with 1% v/v hydrocarbon. Isolates were grouped into groups of good, moderate, acceptable and negative, based on the turbidity of the media (Inoue et al., 1989). Non-inoculated controls were also used to ensure that the turbidity is due to growth.

[3] = cited from earlier work
[4] = test system: lipase secreted by Bacillus sphaericus 205y; experiment: Effect of organic solvents on crude lipase secreted by Bacillus sphaericus 205y; assay type: biochemical; settings: 25% (v/v) solvent
Description: Lipase activity is measured with olive oil emulsion as substrate (Kwon and Rhee. 1991). All reactions were performed at 37° C. for 15 minutes at shaking condition of 200 rpm unless otherwise indicated. One unit of lipase activity was defined as 1.0 μmol of fatty acid liberated per min per ml.
Bacillus sphaericus 205y is grown at 37° C. in M3 medium. The culture medium (24 h) is […] (0.25 μm pore size) as crude enzyme. Investigation of various effects of organic solvents at the concentration of 25% (v/v) (1 ml of organic solvent/3 ml of crude enzyme) on the lipase activity was done. The reaction mixture was incubated for 30 minutes at 37° C. under shaking condition (200 rpm).

SMILES	Relative activity (%) at concentration of 25% [1] [%]	Growth of isolate 205y ([2]; Hydrocarbon 1% (v/v))	Growth of isolate 205y ([2]; Hydrocarbon 5% (v/v))	Growth of isolate 205y ([2]; Hydrocarbon 10% (v/v))	Growth of isolate 205y ([2]; Hydrocarbon 25% (v/v))	Growth of isolate 205y ([2]; Hydrocarbon 50% (v/v))	Growth of isolate 205y ([2]; Hydrocarbon 75% (v/v))	Log P [3]	Effect on recombinant lipase activity (in words) ([1]; 25% (v/v) solvent)	Lipase activity enhanced (fold of control) ([1]; 25% (v/v) solvent) [folds]	Stability of lipase secreted by Bacillus sphaericus 205y in solvent (in words) [4]	Growth of 205y in solvent (in words) [2]
CC#N [Acetonitrile]	0	–	–	–	–	–	–	–	–	–	–	–
c1ccccc1 [Benzene]	–	++	+++	+++	++	++	++	–	–	–	–	–
C[S+](C)[O-] [Dimethyl sulfoxide]	10	–	–	–	–	–	–	−1.22	–	–	–	–
CCCCCCCCCCCCCCCC [Hexadecane]	0	–	–	–	–	–	–	–	completely inhibited	–	–	–
Cc1ccccc1 [Toluene]	–	+++	+++	++	++	++	++	–	–	–	–	–
CCCCCC [n-Hexane]	110	–	–	–	–	–	–	3.6	slightly activated	1.10	stable	–
Cc1ccc(C)cc1 [ρ-Xylene]	90	++	+++	+++	+++	++	++	–	–	–	stable	good growth
